Data: patent US20060099225A1 (priority 2004, published 2006)

Columns and labels:
Ebola virus (EBOV) = type: cell-based
[1] = test system: 293T cells transfected with Ebola GP; type: cell-based, human

Compound | general cytotoxic effect, trypan blue exclusion (Vero E6 cells) | EBOV infection, viral titer 48 hour post infection (Ebola virus (EBOV)) | virus production when cells recover in medium 4 h after treatment before infection (Ebola virus (EBOV)) | association of Ebola GP with rafts (detergent insoluble fraction) after pre-treatment [1]
CCCCC[C@@H](O)[C@H]1C(=O)O[C@H](C)[C@@H](O)/C=C/C=C/C=C/C=C/C=C(\C)[C@@H](O)C[C@H](O)C[C@H](O)C[C@H](O)C[C@H](O)C[C@H](O)C[C@@H]1O [filipin] | cells were shown to be viable | significant inhibition of EBOV infection | could produce large amounts of virus | 
methyl-β-cyclodextrin |  |  |  | almost complete removal of Ebola GP from rafts
nystatin | cells were shown to be viable |  |  | 
